PMC9127186, “Molecular Basis Underlying Hepatobiliary and Renal Excretion of Phenolic Acids of Salvia miltiorrhiza Roots (Danshen)” (Frontiers in Pharmacology, 2022)

Columns and labels:
[1] = target: T1, rat Oct3 (Rattus norvegicus, UniProt O88446); assay: Cellular transport assay, HEK-293 cells expressing rat Oct3; conditions: positive substrate 20 μM, 10 min; rat Oct3
T1 sequence (O88446 1-551): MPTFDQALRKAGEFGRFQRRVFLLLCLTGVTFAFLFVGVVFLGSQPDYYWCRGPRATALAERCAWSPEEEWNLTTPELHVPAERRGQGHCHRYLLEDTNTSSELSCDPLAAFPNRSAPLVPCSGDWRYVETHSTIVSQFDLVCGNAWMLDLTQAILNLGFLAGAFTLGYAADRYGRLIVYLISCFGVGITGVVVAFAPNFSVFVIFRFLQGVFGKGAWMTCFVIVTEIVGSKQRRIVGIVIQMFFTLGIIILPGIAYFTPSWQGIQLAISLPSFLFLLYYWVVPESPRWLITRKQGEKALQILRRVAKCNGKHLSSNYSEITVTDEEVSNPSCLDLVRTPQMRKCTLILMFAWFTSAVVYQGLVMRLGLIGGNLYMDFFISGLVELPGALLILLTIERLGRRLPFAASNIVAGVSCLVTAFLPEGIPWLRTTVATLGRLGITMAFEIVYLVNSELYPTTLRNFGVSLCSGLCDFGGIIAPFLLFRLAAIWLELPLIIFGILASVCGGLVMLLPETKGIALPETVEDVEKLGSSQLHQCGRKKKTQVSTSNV

[2] = target: T2, human OCT3 (Homo sapiens, UniProt O75751); assay: Cellular transport assay, HEK-293 cells expressing human OCT3; conditions: positive substrate 20 μM, 10 min; human OCT3
T2 sequence (O75751 1-556): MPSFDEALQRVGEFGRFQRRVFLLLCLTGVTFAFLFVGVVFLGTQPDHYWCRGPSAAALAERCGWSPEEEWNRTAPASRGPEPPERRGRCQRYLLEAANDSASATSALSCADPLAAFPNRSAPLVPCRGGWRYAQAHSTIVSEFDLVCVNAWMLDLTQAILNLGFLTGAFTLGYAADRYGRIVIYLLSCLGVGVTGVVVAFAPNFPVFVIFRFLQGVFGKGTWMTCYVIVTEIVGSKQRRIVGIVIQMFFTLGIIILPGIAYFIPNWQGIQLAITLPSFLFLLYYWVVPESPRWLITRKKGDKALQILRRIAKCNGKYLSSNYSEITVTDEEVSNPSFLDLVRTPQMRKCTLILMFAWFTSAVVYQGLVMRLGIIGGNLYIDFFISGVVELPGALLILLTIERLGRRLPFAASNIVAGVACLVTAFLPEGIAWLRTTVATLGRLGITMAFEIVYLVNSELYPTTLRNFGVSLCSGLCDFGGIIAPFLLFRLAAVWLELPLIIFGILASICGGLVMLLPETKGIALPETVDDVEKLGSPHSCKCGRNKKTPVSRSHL

[3] = target: T3, rat Octn2 (Rattus norvegicus, UniProt O70594); assay: Cellular transport assay, HEK-293 cells expressing rat Octn2; conditions: positive substrate 20 μM, 10 min; rat Octn2
T3 sequence (O70594 1-557): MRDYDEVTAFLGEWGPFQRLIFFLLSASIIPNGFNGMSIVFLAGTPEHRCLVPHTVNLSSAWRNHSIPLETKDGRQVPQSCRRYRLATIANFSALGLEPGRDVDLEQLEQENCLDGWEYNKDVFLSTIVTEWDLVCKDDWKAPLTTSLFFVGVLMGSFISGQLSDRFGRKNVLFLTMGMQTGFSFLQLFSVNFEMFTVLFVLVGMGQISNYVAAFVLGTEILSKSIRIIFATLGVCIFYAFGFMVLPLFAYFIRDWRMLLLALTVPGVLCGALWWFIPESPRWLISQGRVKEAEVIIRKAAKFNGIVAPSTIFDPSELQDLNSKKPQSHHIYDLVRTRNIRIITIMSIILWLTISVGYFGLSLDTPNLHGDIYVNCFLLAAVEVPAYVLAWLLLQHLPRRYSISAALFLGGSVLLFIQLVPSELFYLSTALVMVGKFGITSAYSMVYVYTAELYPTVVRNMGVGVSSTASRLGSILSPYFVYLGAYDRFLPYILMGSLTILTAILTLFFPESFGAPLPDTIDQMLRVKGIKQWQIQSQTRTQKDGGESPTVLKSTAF

[4] = target: T4, rat Bsep (Rattus norvegicus, UniProt O70127); assay: Vesicular transport assay, inside-out membrane vesicles expressing rat Bsep; conditions: positive substrate 20 μM, 10 min; rat Bsep
T4 sequence (O70127 1-1321): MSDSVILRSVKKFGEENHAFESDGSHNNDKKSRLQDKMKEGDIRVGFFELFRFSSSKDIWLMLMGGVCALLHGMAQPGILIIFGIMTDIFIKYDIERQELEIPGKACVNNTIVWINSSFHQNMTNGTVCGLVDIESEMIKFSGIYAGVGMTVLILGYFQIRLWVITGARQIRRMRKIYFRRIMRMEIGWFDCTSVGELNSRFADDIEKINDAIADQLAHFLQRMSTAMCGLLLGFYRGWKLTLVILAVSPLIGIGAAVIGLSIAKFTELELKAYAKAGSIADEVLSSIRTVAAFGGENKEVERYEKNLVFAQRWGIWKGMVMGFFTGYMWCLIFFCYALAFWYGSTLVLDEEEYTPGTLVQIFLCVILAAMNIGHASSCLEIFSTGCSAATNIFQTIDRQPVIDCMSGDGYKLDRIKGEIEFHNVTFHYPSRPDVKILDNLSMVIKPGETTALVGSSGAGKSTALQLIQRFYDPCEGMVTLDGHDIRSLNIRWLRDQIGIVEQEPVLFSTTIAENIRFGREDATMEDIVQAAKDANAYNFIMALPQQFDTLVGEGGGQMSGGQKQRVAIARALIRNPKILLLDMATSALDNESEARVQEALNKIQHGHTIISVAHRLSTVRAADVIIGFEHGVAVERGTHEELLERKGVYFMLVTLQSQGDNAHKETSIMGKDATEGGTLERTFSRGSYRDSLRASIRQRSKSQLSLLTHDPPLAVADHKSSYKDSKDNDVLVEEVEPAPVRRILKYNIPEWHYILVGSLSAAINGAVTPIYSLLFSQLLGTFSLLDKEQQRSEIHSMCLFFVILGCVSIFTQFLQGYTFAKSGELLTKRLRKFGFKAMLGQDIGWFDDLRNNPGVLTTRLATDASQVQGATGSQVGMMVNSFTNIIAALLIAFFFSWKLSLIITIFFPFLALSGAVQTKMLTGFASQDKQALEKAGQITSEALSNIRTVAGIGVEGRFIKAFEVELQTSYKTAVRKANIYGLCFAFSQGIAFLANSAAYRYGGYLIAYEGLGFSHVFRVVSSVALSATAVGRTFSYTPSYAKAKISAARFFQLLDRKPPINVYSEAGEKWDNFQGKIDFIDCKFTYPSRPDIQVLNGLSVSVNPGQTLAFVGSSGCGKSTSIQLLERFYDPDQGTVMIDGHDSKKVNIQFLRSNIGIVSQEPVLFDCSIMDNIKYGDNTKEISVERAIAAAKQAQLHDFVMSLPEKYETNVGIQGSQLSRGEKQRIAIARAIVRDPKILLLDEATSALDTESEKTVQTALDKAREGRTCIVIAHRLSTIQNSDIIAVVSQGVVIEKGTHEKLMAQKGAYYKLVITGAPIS
Experimental: (§1) Inside-out membrane vesicles (5 mg protein/mL), prepared from insect cells expressing human multidrug resistance-associated protein (MRP) 2, MRP3, MRP4, breast cancer resistance protein (BCRP), bile salt export pump (BSEP), and multidrug resistance protein (MDR) one and rat Mrp2, Mrp4, Bcrp, and Bsep, and vesicles (5 mg protein/mL; prepared from the insect cells expressing no ABC transporter; serving as negative control) were obtained from Genomembrane (Kanazawa, Japan).
(§2) The test Danshen compounds at 100 µM final concentration were separately incubated with the membrane vesicles for 10 min. Buffer C (50 mM MOPS-tris, 70 mM KCl, 7.5 mM MgCl2, pH 7.0) was used for preincubation and incubation, while buffer D (40 mM MOPS-tris, 70 mM KCl, pH 7.0) was used for vesicle washing. The transport rate (pmol/mg protein/min) of the test Danshen compound was calculated using Equation (2): Transport=(CV×VV)/T/WV (2) where C V, V V, T, and W V represent concentration of the compound in vesicular lysates supernatant (μM), volume of the lysates (μL), incubation time (10 min), and amount of vesicle protein amount per well (0.05 mg), respectively. Differential transport of the test Danshen compound between ATP-containing vesicles and AMP-containing vesicles was defined as net transport ratio (TransportATP/TransportAMP ratio). […] All the incubation samples were analyzed by liquid chromatography/mass spectrometry.

[5] = target: T5, human NTCP (Homo sapiens, UniProt Q14973); assay: Cellular transport assay, HEK-293 cells expressing human NTCP; conditions: positive substrate 20 μM, 10 min; human NTCP
T5 sequence (Q14973 1-349): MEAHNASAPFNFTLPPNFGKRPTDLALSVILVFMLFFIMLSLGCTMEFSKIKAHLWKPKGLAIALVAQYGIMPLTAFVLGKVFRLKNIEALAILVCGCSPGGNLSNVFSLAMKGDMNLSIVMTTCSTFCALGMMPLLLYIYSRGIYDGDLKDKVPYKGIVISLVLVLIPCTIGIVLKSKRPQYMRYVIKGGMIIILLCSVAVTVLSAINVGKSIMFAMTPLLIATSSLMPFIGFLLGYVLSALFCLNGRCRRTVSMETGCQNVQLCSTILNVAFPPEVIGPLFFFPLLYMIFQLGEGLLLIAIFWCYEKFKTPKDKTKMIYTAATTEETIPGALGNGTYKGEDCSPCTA

[6] = target: human BSEP (Homo sapiens, UniProt O95342); assay: Vesicular transport assay, inside-out membrane vesicles expressing human BSEP; conditions: positive substrate 20 μM, 10 min; human BSEP
Experimental: as §1, §2

[7] = target: T6, rat Ntcp (Rattus norvegicus, UniProt P26435); assay: Cellular transport assay, HEK-293 cells expressing rat Ntcp; conditions: positive substrate 20 μM, 10 min; rat Ntcp
T6 sequence (P26435 1-362): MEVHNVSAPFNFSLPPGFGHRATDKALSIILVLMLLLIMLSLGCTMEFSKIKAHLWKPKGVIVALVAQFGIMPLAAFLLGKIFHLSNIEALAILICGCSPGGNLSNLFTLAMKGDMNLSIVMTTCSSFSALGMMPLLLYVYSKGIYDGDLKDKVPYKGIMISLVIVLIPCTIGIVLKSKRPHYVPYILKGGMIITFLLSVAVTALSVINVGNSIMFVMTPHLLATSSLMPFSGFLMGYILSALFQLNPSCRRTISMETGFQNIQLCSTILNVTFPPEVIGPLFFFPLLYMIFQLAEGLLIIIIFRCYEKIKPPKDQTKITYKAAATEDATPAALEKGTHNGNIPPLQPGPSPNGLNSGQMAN

human BSEP, sequence (O95342 whole entry): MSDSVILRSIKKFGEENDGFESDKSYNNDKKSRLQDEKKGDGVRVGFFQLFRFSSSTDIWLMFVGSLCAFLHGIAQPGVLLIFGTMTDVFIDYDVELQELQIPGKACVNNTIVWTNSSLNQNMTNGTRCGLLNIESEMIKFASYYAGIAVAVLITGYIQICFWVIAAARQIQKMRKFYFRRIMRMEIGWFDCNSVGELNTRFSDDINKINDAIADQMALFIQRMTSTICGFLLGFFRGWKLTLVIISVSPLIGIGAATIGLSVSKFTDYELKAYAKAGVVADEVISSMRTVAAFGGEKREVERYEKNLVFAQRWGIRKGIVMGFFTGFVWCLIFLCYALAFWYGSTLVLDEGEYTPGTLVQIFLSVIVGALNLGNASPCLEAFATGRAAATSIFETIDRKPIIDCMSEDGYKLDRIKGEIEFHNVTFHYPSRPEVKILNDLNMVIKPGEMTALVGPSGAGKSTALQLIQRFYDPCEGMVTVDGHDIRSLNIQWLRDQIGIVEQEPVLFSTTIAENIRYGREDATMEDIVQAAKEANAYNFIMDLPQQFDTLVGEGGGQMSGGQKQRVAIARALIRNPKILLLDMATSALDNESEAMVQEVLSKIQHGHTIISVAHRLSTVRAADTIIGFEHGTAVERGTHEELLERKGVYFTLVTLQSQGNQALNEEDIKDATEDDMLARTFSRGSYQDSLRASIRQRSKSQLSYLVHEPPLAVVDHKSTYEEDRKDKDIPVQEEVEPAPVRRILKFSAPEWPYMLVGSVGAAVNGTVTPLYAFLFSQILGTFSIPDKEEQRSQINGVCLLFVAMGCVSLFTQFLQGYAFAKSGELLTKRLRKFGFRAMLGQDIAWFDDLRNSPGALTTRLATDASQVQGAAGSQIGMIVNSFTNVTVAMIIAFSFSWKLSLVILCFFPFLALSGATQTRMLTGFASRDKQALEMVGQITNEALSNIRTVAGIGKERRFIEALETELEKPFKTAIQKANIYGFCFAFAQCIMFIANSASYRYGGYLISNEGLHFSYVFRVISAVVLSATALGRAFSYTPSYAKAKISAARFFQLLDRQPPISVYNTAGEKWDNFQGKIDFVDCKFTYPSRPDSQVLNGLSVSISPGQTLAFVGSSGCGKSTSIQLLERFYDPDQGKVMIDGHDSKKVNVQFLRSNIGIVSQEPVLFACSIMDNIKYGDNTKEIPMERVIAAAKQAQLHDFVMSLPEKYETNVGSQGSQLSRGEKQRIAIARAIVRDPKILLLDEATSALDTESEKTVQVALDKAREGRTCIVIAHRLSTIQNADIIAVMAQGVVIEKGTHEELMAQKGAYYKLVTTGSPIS

| Compound | TransportTC/TransportMC ratio, positive substrate [1] | TransportTC/TransportMC ratio, positive substrate [2] | TransportTC/TransportMC ratio, positive substrate [3] | TransportATP/TransportAMP ratio, positive substrate [4] | TransportTC/TransportMC ratio, positive substrate [5] | TransportATP/TransportAMP ratio, positive substrate [6] | TransportTC/TransportMC ratio, positive substrate [7] |
| --- | --- | --- | --- | --- | --- | --- | --- |
| CC[N+](CC)(CC)CC [TEA, tetraethylammonium, reference compound] | 3.90 ± 0.88 (TEA) | 4.45 ± 0.27 (TEA) | 9.85 ± 0.74 (TEA) |  |  |  |  |
| C[C@H](CCC(=O)NCCS(=O)(=O)O)[C@H]1CC[C@H]2[C@@H]3[C@H](O)C[C@@H]4C[C@H](O)CC[C@]4(C)[C@H]3C[C@H](O)[C@]12C [TCA, taurocholic acid, reference compound] |  |  |  | 5.14 ± 0.88 (TCA) | 144 ± 30 (TCA) | 4.03 ± 0.89 (TCA) | 134 ± 15 (TCA) |
